Laboratory results reported in patent US9303025B2, “Apoptosis-inducing agents for the treatment of cancer and immune and autoimmune diseases” (AbbVie Inc., priority 2008, dated 2016).

Target: GST-Bcl-2 (Homo sapiens (Human), UniProt P10415)
Test: Time Resolved-Fluorescence Resonance Energy Transfer (TR-FRET) Bcl-2 binding assay
Settings: GST-Bcl-2 1 nM, F-Bak peptide probe 100 nM, Tb-anti-GST antibody 1 nM; 3 hours at room temperature; Ki by Wang's equation
Description: Tb-anti-GST antibody was purchased from Invitrogen (Catalog No. PV4216).
Representative compounds were serially diluted in dimethyl sulfoxide (DMSO) starting at 50 μM (2× starting concentration; 10% DMSO) and 10 μL were transferred into a 384-well plate. The samples are then mixed on a shaker for 1 minute and incubated for an additional 3 hours at room temperature. For each assay, the probed antibody and protein/probe/antibody were included on each assay plate as negative and positive controls, respectively. Fluorescence was measured on the Envision (Perkin Elmer) using a 340/35 nm excitation filter and 520/525 (F-Bak peptide) and 495/510 nm (Tb-labeled anti-Histidine antibody) emission filters.
The samples were then mixed on a shaker for 1 minute and incubated for an additional 3 hours at room temperature. For each assay, the probe/antibody and protein/probe/antibody were included on each assay plate as negative and positive controls, respectively. Fluorescence was measured on the Envision (Perkin Elmer) using a 340/35 nm excitation filter and 520/525 (F-Bak peptide) and 495/510 nm (Tb-labeled anti-Histidine antibody) emission filters.
The inhibition constant (Ki) is the dissociation constant of an enzyme-inhibitor complex or a protein/small molecule complex, wherein the small molecule is inhibiting binding of one protein to another protein. So a large Ki value indicates a low binding affinity and a small Ki value indicates a high binding affinity.

Sequence of GST-Bcl-2 (P10415 whole entry): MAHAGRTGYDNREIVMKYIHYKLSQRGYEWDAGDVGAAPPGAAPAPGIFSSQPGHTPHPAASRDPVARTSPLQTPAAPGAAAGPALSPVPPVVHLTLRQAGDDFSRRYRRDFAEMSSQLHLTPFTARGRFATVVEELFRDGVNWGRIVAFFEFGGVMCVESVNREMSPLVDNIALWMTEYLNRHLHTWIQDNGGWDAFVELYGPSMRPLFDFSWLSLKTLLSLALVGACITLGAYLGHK

With “4-(4-{[2-(4-chlorophenyl)-4,4-dimethylcyclohex-1-en-1-yl]methyl}piperazin-1-yl)-N-[(4-{[3-(dimethylamino)propyl]amino}-3-nitrophenyl]-2-(3-fluorophenoxy)benzamide [Example 138]” as the compound, how does the Ki read?
The Ki was 0.016 nM.

How did the Ki turn out when `CC1(C)CCC(CN2CCN(c3ccc(C(=O)NS(=O)(=O)c4ccc(NCCCN5CCCC5)c([N+](=O)[O-])c4)c(Oc4cccc(Cl)c4F)c3)CC2)=C(c2ccc(Cl)cc2)C1` [Example 149, 2-(3-chloro-2-fluorophenoxy)-4-(4-{[2-(4-chlorophenyl)-4,4-dimethylcyclohex-1-en-1-yl]methyl}piperazin-1-yl)-N-({3-nitro-4-[(3-pyrrolidin-1-ylpropyl)amino]phenyl}sulfonyl)benzamide] was run?
Its Ki is 0.03 nM.

For `CC1(C)CCC(CN2CCN(c3ccc(C(=O)NS(=O)(=O)c4ccc(NCC5CCOCC5)c([N+](=O)[O-])c4)c(Oc4cccc5c4CC(=O)N5)c3)CC2)=C(c2ccc(Cl)cc2)C1` [Example 268, 4-(4-{[2-(4-chlorophenyl)-4,4-dimethylcyclohex-1-en-1-yl]methyl}piperazin-1-yl)-N-({3-nitro-4-[(tetrahydro-2H-pyran-4-ylmethyl)amino]phenyl}sulfonyl)-2-[(2-oxo-2,3-dihydro-1H-indol-4-yl)oxy]benzamide], which Ki is on record?
Its Ki is 0.042 nM.
